Source: patent US20240409585A1, “MACROCYCLIC IMMUNOMODULATORS” (priority 2021, published 2024)
Where two headings read alike, the source gives them in different places. Each block holds one compound with its values, some of them ahead of it. Numbered stars: 1 amine (or outer) side, 2 acyl side, 3 side chain; on linkers, the order of the positions; unused ones are H or OH. Bridge positions count the residues as written; N and C are the ends. Square brackets hold non-standard residues; d marks the D form. Peptide text beside a SMILES is read from it. * marks the point of attachment. Bip(4'-COOH) = N[C@@H](Cc1ccc(-c2ccc(C(=O)O)cc2)cc1)C(=O)O; Bip(4'-NHAc) = CC(=O)Nc1ccc(-c2ccc(C[C@H](N)C(=O)O)cc2)cc1; X12 = O=C(NCc1cccc(C[C@H](N[*:1])C(=O)[*:2])c1)c1ccncc1; X38 = O=C([C@H](CCCn1cc(-c2ccccc2)nn1)N[*:1])[*:2]; Phe(3-CF3) = N[C@@H](Cc1cccc(C(F)(F)F)c1)C(=O)O; Ala(morpholin-4-yl) = N[C@@H](CN1CCOCC1)C(=O)O; Phe(4-COOH) = N[C@@H](Cc1ccc(C(=O)O)cc1)C(=O)O; X53 = O=C([C@H](Cc1cc(F)c(F)cc1F)N[*:1])[*:2]; Bip = N[C@@H](Cc1ccc(-c2ccccc2)cc1)C(=O)O; Phe(2-Cl) = N[C@@H](Cc1ccccc1Cl)C(=O)O; Phe(3-I) = N[C@@H](Cc1cccc(I)c1)C(=O)O; Phe(3-Me) = Cc1cccc(C[C@H](N)C(=O)O)c1; Phe(4-Me) = Cc1ccc(C[C@H](N)C(=O)O)cc1; Phe(2-F) = N[C@@H](Cc1ccccc1F)C(=O)O; Val(3-OH) = CC(C)(O)[C@H](N)C(=O)O; hPhe = N[C@@H](CCc1ccccc1)C(=O)O; Cha = N[C@@H](CC1CCCCC1)C(=O)O; Carboxymethyl = O=C(O)C*; NMeA = CN[C@@H](C)C(=O)O; Orn = NCCC[C@H](N)C(=O)O; Dab = NCC[C@H](N)C(=O)O

Columns and labels:
[1] = target: T1, PE-labeled human PD-L1-Ig binding to Jurkat cell line over-expressing human PD-1 (Jurkat-PD-1) (Homo sapiens, UniProt Q15116); test: Jurkat-PD-1 Cell Binding High-Content Screening Assay (CBA): Method 1; conditions: Jurkat-PD-1 cells, PE-labeled PD-L1-Ig
T1 construct: expressed in transfected cells; host or cells: Jurkat
T1 sequence (Q15116 25-288): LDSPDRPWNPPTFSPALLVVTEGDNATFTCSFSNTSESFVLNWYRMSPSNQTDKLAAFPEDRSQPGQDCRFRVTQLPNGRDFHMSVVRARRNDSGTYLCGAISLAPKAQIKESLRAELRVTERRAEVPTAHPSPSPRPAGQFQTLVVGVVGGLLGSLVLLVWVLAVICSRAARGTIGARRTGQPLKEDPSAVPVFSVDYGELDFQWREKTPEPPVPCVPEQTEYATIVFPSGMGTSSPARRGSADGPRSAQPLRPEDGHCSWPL

[2] = target: T1, PE-labeled human PD-L1-Ig binding to Jurkat cell line over-expressing human PD-1 (Jurkat-PD-1); test: Jurkat-PD-1 Cell Binding High-Content Screening Assay (CBA): Method 2 (presence and absence of tween-20); conditions: Jurkat-PD-1 cells, PE-labeled PD-L1-Ig 20 nM, presence or absence of tween-20 not given
Method: Jurkat-PD-1 Cell Binding High-Content Screening Assay (CBA): Method 2
Phycoerythrin (PE) was covalently linked to the Ig epitope tag of human PD-L1-Ig and fluorescently labeled PD-L1-Ig was used for binding studies with a Jurkat cell line over-expressing human PD-1 (Jurkat-PD-1). […] 100 nl of compound was added to cells followed by incubation at 37° C. for 2 hours. To interrogate potential issues with compound aggregation, compounds were tested in the presence and absence of tween-20 detergent. […] Then, 5 μl of PE-labeled PD-L1-Ig (20 nM final), diluted in DMEM supplemented with 10% fetal calf serum. […] Data was collected and processed using a Cell Insight NXT High Content Imager and associated software.

[3] = target: T2, Alexa fluor-647 labeled human PD-L1-Ig binding to Jurkat cell line over-expressing human PD-1 (Homo sapiens, UniProt Q15116); test: Jurkat-PD-1 Cell Binding High-Content Screening Assay (CBA): Method 3 (Alexa fluor-647 labeled PD-L1-Ig); conditions: Jurkat-PD-1 cells, Alexa fluor-647 labeled PD-L1-Ig 177 nM
T2 construct: expressed in transfected cells; host or cells: Jurkat
T2 sequence (Q15116 25-288): as above
Outline: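 Readout by high-content imaging of PFA-fixed, Hoechst-stained cells after 1 h with 177 nM (final) Alexa fluor-647 PD-L1-Ig. Compound was added first to hPD-1 Jurkat cells in RPMI plus 10% FCS for 2 h at 37 °C.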

[4] = head μM, read-out: CBA Method 2 μM
[5] = head μM, read-out: CBA Method 3 μM

Compound: CC(C)C[C@H]1NC(=O)[C@H](C)N(C)C(=O)[C@H](CCC(N)=O)NC(=O)[C@H](Cc2ccc(-c3ccccc3)cc2)NC(=O)[C@H](Cc2ccc(C(=O)O)cc2)NC(=O)[C@H](Cc2cccc(C(F)(F)F)c2)NC(=O)[C@H](CC(=O)O)NC(=O)[C@H](Cc2ccc(OCC(=O)O)cc2)NC(=O)[C@H](CN2CCOCC2)NC(=O)CSC[C@@H](C(=O)N[C@@H](CCN)C(N)=O)NC(=O)[C@H](CCCN)NC(=O)[C@H](C(C)C)NC(=O)[C@H](CC2CCCCC2)NC(=O)[C@H](CCN)NC1=O [Example 5013] ({CH2CO}-[Ala(morpholin-4-yl)]Y(Carboxymethyl)D[Phe(3-CF3)][Phe(4-COOH)][Bip]Q[NMeA][dL][Dab][Cha]V[Orn]C[Dab]-NH2; thioether N-14)
- IC50 ([1]; nM, read-out: CBA Method 1): 11 nM
- IC50 ([2]; nM, read-out: CBA Method 2): 4 nM

Compound: CC(C)C[C@H]1NC(=O)[C@H](C)N(C)C(=O)[C@H](CCC(N)=O)NC(=O)[C@H](Cc2ccc(-c3ccccc3)cc2)NC(=O)[C@H](Cc2ccc(C(=O)O)cc2)NC(=O)[C@H](Cc2cccc(C(F)(F)F)c2)NC(=O)[C@H](CC(=O)O)NC(=O)[C@H](Cc2ccc(OCC(=O)O)cc2)NC(=O)[C@H](CN2CCOCC2)NC(=O)CSC[C@@H](C(=O)N[C@@H](CCN)C(N)=O)NC(=O)[C@H](CCCN)NC(=O)[C@H](C(C)C)NC(=O)[C@H](CC2CCCCC2)NC(=O)[C@H](CCN)NC1=O [Example 5014] ({CH2CO}-[Ala(morpholin-4-yl)]Y(Carboxymethyl)D[Phe(3-CF3)][Phe(4-COOH)][Bip]Q[NMeA][dL][Dab][Cha]V[Orn]C[Dab]-NH2; thioether N-14)
- IC50 ([1]; μM, read-out: CBA Method 1 μM): 170 nM
- IC50 [2, 4]: 40 nM

Compound: Cc1cccc(C[C@@H]2NC(=O)[C@H](CC(=O)O)NC(=O)[C@H](Cc3ccc(OCC(=O)O)cc3)NC(=O)[C@H](CN3CCOCC3)NC(=O)CSC[C@@H](C(=O)N[C@@H](CCN)C(N)=O)NC(=O)[C@H](CCCN)NC(=O)[C@H](C(C)C)NC(=O)[C@H](CCc3ccccc3)NC(=O)[C@H](CCN)NC(=O)[C@@H](CC(C)C)NC(=O)[C@H](C)N(C)C(=O)[C@H](CCC(N)=O)NC(=O)[C@H](Cc3ccc(-c4ccccc4)cc3)NC(=O)[C@H](Cc3ccc(C(=O)O)cc3)NC2=O)c1 [Example 5015] ({CH2CO}-[Ala(morpholin-4-yl)]Y(Carboxymethyl)D[Phe(3-Me)][Phe(4-COOH)][Bip]Q[NMeA][dL][Dab][hPhe]V[Orn]C[Dab]-NH2; thioether N-14)
- IC50 ([1]; μM, read-out: CBA Method 1 μM): 210 nM
- IC50 [2, 4]: 310 nM

Compound: CC(C)C[C@H]1NC(=O)[C@H](C)N(C)C(=O)[C@H](CCC(N)=O)NC(=O)[C@H](Cc2ccc(-c3ccccc3)cc2)NC(=O)[C@H](Cc2cccc(CNC(=O)c3ccncc3)c2)NC(=O)[C@H](Cc2cccc(I)c2)NC(=O)[C@H](CC(=O)O)NC(=O)[C@H](Cc2ccc(OCC(=O)O)cc2)NC(=O)[C@H](CN2CCOCC2)NC(=O)CSC[C@@H](C(=O)N[C@@H](CCN)C(N)=O)NC(=O)[C@H](CCCN)NC(=O)[C@H](C(C)C)NC(=O)[C@H](CC2CCCCC2)NC(=O)[C@H](CCN)NC1=O [Example 5020] ({CH2CO}-[Ala(morpholin-4-yl)]Y(Carboxymethyl)D[Phe(3-I)][X12][Bip]Q[NMeA][dL][Dab][Cha]V[Orn]C[Dab]-NH2; thioether N-14)
- IC50 ([1]; nM, read-out: CBA Method 1): 5.8 nM
- IC50 ([2]; nM, read-out: CBA Method 2): 5 nM

More lines, now with the values ahead:

- IC50 ([3]; nM, read-out: CBA Method 3): 0.8 nM
Compound: Cc1ccc(C[C@@H]2NC(=O)CSC[C@@H](C(=O)N[C@@H](CCN)C(N)=O)NC(=O)[C@H](CCCN)NC(=O)[C@H](C(C)C)NC(=O)[C@H](CC3CCCCC3)NC(=O)[C@H](CCN)NC(=O)[C@@H](CC(C)C)NC(=O)[C@H](C)N(C)C(=O)[C@H](CCC(N)=O)NC(=O)[C@H](Cc3ccc(-c4ccccc4)cc3)NC(=O)[C@H](Cc3ccc(C(=O)O)cc3)NC(=O)[C@H](Cc3cccc(C)c3)NC(=O)[C@H](CC(=O)O)NC(=O)[C@H](Cc3ccc(OCC(=O)O)cc3)NC2=O)cc1 [Example 5289] ({CH2CO}-[Phe(4-Me)]Y(Carboxymethyl)D[Phe(3-Me)][Phe(4-COOH)][Bip]Q[NMeA][dL][Dab][Cha]V[Orn]C[Dab]-NH2; thioether N-14)

- IC50 [3, 5]: 100 nM
Compound: Cc1cccc(C[C@@H]2NC(=O)[C@H](CC(=O)O)NC(=O)[C@H](Cc3ccc(OCC(=O)O)cc3)NC(=O)[C@H](Cc3cc(F)c(F)cc3F)NC(=O)CSC[C@@H](C(=O)N[C@@H](CCN)C(N)=O)NC(=O)[C@H](CCCN)NC(=O)[C@H](C(C)C)NC(=O)[C@H](CC3CCCCC3)NC(=O)[C@H](CCN)NC(=O)[C@@H](CC(C)C)NC(=O)[C@H](C)N(C)C(=O)[C@H](CCC(N)=O)NC(=O)[C@H](Cc3ccc(-c4ccccc4)cc3)NC(=O)[C@H](Cc3ccc(C(=O)O)cc3)NC2=O)c1 [Example 5290] ({CH2CO}-[X53]Y(Carboxymethyl)D[Phe(3-Me)][Phe(4-COOH)][Bip]Q[NMeA][dL][Dab][Cha]V[Orn]C[Dab]-NH2; thioether N-14)

- IC50 ([3]; nM, read-out: CBA Method 3): 0.2 nM
Compound: Cc1cccc(C[C@@H]2NC(=O)[C@H](CC(=O)O)NC(=O)[C@H](Cc3ccc(OCC(=O)O)cc3)NC(=O)[C@H](Cc3ccccc3Cl)NC(=O)CSC[C@@H](C(=O)N[C@@H](CCN)C(N)=O)NC(=O)[C@H](CCCN)NC(=O)[C@H](C(C)C)NC(=O)[C@H](CC3CCCCC3)NC(=O)[C@H](CCN)NC(=O)[C@@H](CC(C)C)NC(=O)[C@H](C)N(C)C(=O)[C@H](CCC(N)=O)NC(=O)[C@H](Cc3ccc(-c4ccccc4)cc3)NC(=O)[C@H](Cc3ccc(C(=O)O)cc3)NC2=O)c1 [Example 5291] ({CH2CO}-[Phe(2-Cl)]Y(Carboxymethyl)D[Phe(3-Me)][Phe(4-COOH)][Bip]Q[NMeA][dL][Dab][Cha]V[Orn]C[Dab]-NH2; thioether N-14)

- IC50 [3, 5]: 60 nM
Compound: Cc1cccc(C[C@@H]2NC(=O)[C@H](CC(=O)O)NC(=O)[C@H](Cc3ccc(OCC(=O)O)cc3)NC(=O)[C@H](Cc3ccccc3F)NC(=O)CSC[C@@H](C(=O)N[C@@H](CCN)C(N)=O)NC(=O)[C@H](CCCN)NC(=O)[C@H](C(C)C)NC(=O)[C@H](CC3CCCCC3)NC(=O)[C@H](CCN)NC(=O)[C@@H](CC(C)C)NC(=O)[C@H](C)N(C)C(=O)[C@H](CCC(N)=O)NC(=O)[C@H](Cc3ccc(-c4ccccc4)cc3)NC(=O)[C@H](Cc3ccc(C(=O)O)cc3)NC2=O)c1 [Example 5293] ({CH2CO}-[Phe(2-F)]Y(Carboxymethyl)D[Phe(3-Me)][Phe(4-COOH)][Bip]Q[NMeA][dL][Dab][Cha]V[Orn]C[Dab]-NH2; thioether N-14)

- IC50 [3, 5]: 40 nM
Compound: CC(C)C[C@H]1NC(=O)[C@H](C)N(C)C(=O)[C@H](CCC(N)=O)NC(=O)[C@H](Cc2ccc(-c3ccccc3)cc2)NC(=O)[C@H](CCc2ccccc2)NC(=O)[C@H](Cc2cccc(C(F)(F)F)c2)NC(=O)[C@H](CC(=O)N[C@@H](CC(=O)O)C(=O)O)NC(=O)[C@H](Cc2ccc(OCC(=O)O)cc2)NC(=O)[C@H](CN2CCOCC2)NC(=O)CSC[C@@H](C(=O)N[C@@H](CCN)C(N)=O)NC(=O)[C@H](CCCN)NC(=O)[C@H](C(C)C)NC(=O)[C@H](CC2CCCCC2)NC(=O)[C@H](CCN)NC1=O [Example 5294] ({CH2CO}-[Ala(morpholin-4-yl)]Y(Carboxymethyl)D(Asp)[Phe(3-CF3)][hPhe][Bip]Q[NMeA][dL][Dab][Cha]V[Orn]C[Dab]-NH2; thioether N-14)

- IC50 ([3]; nM, read-out: CBA Method 3): 1.6 nM
Compound: CC(=O)Nc1ccc(-c2ccc(C[C@@H]3NC(=O)[C@H](Cc4cccc(C)c4)NC(=O)[C@H](CC(=O)O)NC(=O)[C@H](CCCn4cc(-c5ccccc5)nn4)NC(=O)[C@H](CN4CCOCC4)NC(=O)CSC[C@@H](C(=O)N[C@@H](CCN)C(N)=O)NC(=O)[C@H](CCC(N)=O)NC(=O)[C@H](C(C)C)NC(=O)[C@H](CC4CCCCC4)NC(=O)[C@H](CCN)NC(=O)[C@@H](CC(C)C)NC(=O)[C@H](C)N(C)C(=O)[C@H](Cc4ccc(C(=O)O)cc4)NC(=O)[C@H](Cc4ccc(-c5ccccc5)cc4)NC3=O)cc2)cc1 [Example 5295] ({CH2CO}-[Ala(morpholin-4-yl)][X38]D[Phe(3-Me)][Bip(4'-NHAc)][Bip][Phe(4-COOH)][NMeA][dL][Dab][Cha]VQC[Dab]-NH2; thioether N-14)

- IC50 [3, 5]: 20 nM
Compound: CC(=O)Nc1ccc(-c2ccc(C[C@@H]3NC(=O)[C@H](Cc4cccc(C(F)(F)F)c4)NC(=O)[C@H](CC(=O)O)NC(=O)[C@H](Cc4ccc(-c5ccc(C(=O)O)cc5)cc4)NC(=O)[C@H](CN4CCOCC4)NC(=O)CSC[C@@H](C(=O)N[C@@H](CCN)C(N)=O)NC(=O)[C@H](CCC(N)=O)NC(=O)[C@H](C(C)(C)O)NC(=O)[C@H](CC4CCCCC4)NC(=O)[C@H](CCN)NC(=O)[C@@H](CC(C)C)NC(=O)[C@H](C)N(C)C(=O)[C@H](Cc4ccc(C(=O)O)cc4)NC(=O)[C@H](Cc4ccc(-c5ccccc5)cc4)NC3=O)cc2)cc1 [Example 5296] ({CH2CO}-[Ala(morpholin-4-yl)][Bip(4'-COOH)]D[Phe(3-CF3)][Bip(4'-NHAc)][Bip][Phe(4-COOH)][NMeA][dL][Dab][Cha][Val(3-OH)]QC[Dab]-NH2; thioether N-14)
